The structures appear in SMILES notation. Where only a bound is given, the exact number is not on record here.

Turning to `O=C(CI)OCc1ccc([N+](=O)[O-])cc1`, the melting point is 62.5 to 63.5 °C.
Under `CCCCCCCCCCCCCCOc1ccc(COC(=O)Oc2ccccc2)cc1` stands 34 to 35 °C.
Under `CC(c1cccnc1)n1nnc2cc3c(cc2c1=O)OC1CCCN1C3=O` (stereo unspecified) stands 195 to 196 °C; under `Cc1ccc(C2(c3ccc(C)cc3)NC(=O)N(CCCN3CCC(C#N)(c4ccccc4)CC3)C2=O)cc1`, 157 to 159 °C.
Under `Cc1nc(C=Cc2nc3ccc(F)cc3c(=O)n2-c2ccccc2Cl)cs1` stands 231 to 232 °C; under `CCCNCCc1ccc(NS(=O)(=O)c2ccc(Cl)cc2)cc1`, 137 to 140 °C.
In the case of `Oc1ccc(-n2cnc3cc(O)cc(O)c3c2=S)cc1`, the melting point lay within 299 to 302 °C.
Under `OC(Cn1cncn1)(c1ccc(Cl)cn1)c1ccc(Cl)cc1Cl` (stereo unspecified) stands 149 to 150 °C; under `Cc1ccc(NC(=O)Nc2cccc(C(F)(F)F)c2)cc1/C=C/n1cnc2c(NC3CC3)ncnc21`, 160 to 162 °C; under `CNC(=O)/C(=N/OC)c1ccccc1COc1ncc(Cl)cc1C(F)(F)F`, 105 to 106 °C.
Under `Cc1ccc(Nc2cccc3c2OC(COS(=O)(=O)c2ccc(C)cc2)C3)cc1` (stereo unspecified) stands 118 to 120 °C; under `Nc1ccc(-c2nc3n(c2-c2ccc(N)cc2)CCS3)cc1`, 205 to 206 °C; under `CCN(C=O)c1ccccc1C(=O)COC(=O)c1ccccc1`, 78 to 80 °C.
As for `Clc1cc(Cl)c2ocnc2c1`, the melting point fell in the range of 98 to 99 °C.
Under `CCOC(=O)C1=NS(=O)(=O)c2ccccc21` stands 114 to 115 °C.
Under `CC(C)NC(=O)c1c(C(=O)O)ccc(Cl)c1Cl` stands 155 to 156 °C.
In turn, `CC(SSc1ccccc1C(=O)Nc1ccc(S(N)(=O)=O)cc1)C(=O)O` (stereo unspecified) gave a melting point of 268 to 270 °C.
In turn, `O=C(O)CCc1ccc(NC(=O)C(COC2CCCCO2)NS(=O)(=O)c2ccc(Cl)cc2)cc1` (racemic) displayed a melting point of 150 to 151 °C.
In turn, `CCOC(=O)c1cn(C2CC2)c2c(Br)c(F)c(F)cc2c1=O` yielded a melting point of 164 to 168 °C.
Take `CCOC(=O)c1cnc2nc(C(F)(F)F)ccc2c1O`: the melting point is more than 250 °C.
Molecule `CN(Cc1cccc2c1CN(C1CCC(=O)NC1=O)C2=O)C(=O)Nc1ccccc1` (stereo unspecified) returned a melting point of 186 to 188 °C.
Consider `CCc1cc(SCc2cccc3oc(-c4ccc(C(F)(F)F)cc4)nc23)ccc1OCC(=O)O`, for which the melting point was 127 to 128 °C.
Under `O=c1oc(-c2ccc(S(=O)(=O)c3ccccc3)cc2)cc(O)c1SCCc1ccccc1` stands 194 to 195 °C; under `O=C(O)c1cccc(NC(=O)C(CS)Cc2cccnc2)c1` (stereo unspecified), 94 to 97 °C.
As for `C#CCN1C=CC(c2c(O)cc(C(C)C(C)CCCCC)cc2OC)CC1` (stereo unspecified), the melting point lay in the range of 113 to 115 °C.
`COc1nc2cc(C)c(C)cc2nc1C(=O)O`: the melting point fell in the range of 180 to 182 °C.
For `Cn1cc(-c2ccccc2)c(=O)c(-c2cccc(O)c2)c1`, the melting point is 223 to 225 °C.
Under `CC(C)c1cccc(C(C)C)c1NC(=O)NCCN1CCN(CCSc2nc3ncccc3o2)CC1` stands 175 to 176 °C; under `Cn1cc(-c2cccc(N3CCc4c(cc5n4CCCC5)C3=O)c2CO)cc(Nc2ccc(C3CNC3)cn2)c1=O`, 227 to 229 °C.
The molecule `O=[N+]([O-])c1cc(CO)c(Cl)cc1F` yielded a melting point of 39 to 41 °C.
Under `COc1ccc(N2C=Cc3cc(S(N)(=O)=O)sc3S2(=O)=O)cc1` stands 90 to 92 °C.
`O=C(O)Cc1cc(F)ccc1Sc1ccccc1`: the melting point fell in the range of 80 to 83 °C.
Under `COC(=O)NN(C(=O)Cl)c1ccccc1OCCSC` stands 55 to 57 °C; under `N#Cc1cnc2c(sc3ccc([N+](=O)[O-])cc32)c1Nc1ccc(Cl)cc1Cl`, 210 to 213 °C.
Under `CSc1ccc2c(=O)c(OS(C)(=O)=O)cn(C)c2c1` stands 182 °C.
Under `CC(C#Cc1ccc(Oc2c(F)cccc2F)o1)N(O)C(N)=O` (stereo unspecified) stands 161 °C; under `O=c1c2cc(F)c(F)cc2n(CC2CC2)c(=O)n1OCc1ccccc1`, 121 to 123 °C.
In turn, `Oc1ccc(-c2cc3cc(O)ccc3o2)c(-c2ccccc2)c1` registered a melting point of 167 to 170 °C.
With `O=C(O)CCCCCCCCCCOc1ccccc1OCc1ccccc1`, the melting point lay within 62 to 63 °C.
Consider `COC(=O)c1cccc(NC(=O)CSC(C)=O)c1`, for which the melting point fell in the range of 118 to 120 °C.
Under `COC(=O)c1cc(CBr)cc(C2(C#N)CC2)c1` stands 78.3 to 79.8 °C; under `CCCCCCCCCCCCCCCCCCOc1cc(OCCCOc2ccccc2)cc(C(=O)O)c1`, 79 to 81 °C.
In turn, `CCCC[C@@H](NC(=O)[C@H](Cc1ccc(O)cc1)NC(=O)OC(C)(C)C)C(=O)NCC(=O)O` gave a melting point of 174 to 175 °C.
`CC1(C)CCCC(=O)N1` showed a melting point of 128 to 131 °C.
Under `COc1ccc(-c2nc(COc3cccc([N+](=O)[O-])c3)c(C)o2)cc1` stands 109 to 111 °C; under `Fc1cc2c(Nc3ccc(F)c(Br)c3)ncnc2cn1`, 269 to 270 °C.
Under `COc1cccc(NC(=O)N(C)Cc2cccc3c2C(=O)N(C2CCC(=O)NC2=O)C3=O)c1` (stereo unspecified) stands 160 to 162 °C; under `FC(F)(F)c1ccc(-c2ncc(CCl)s2)cc1`, 55 to 57 °C.
Under `CCCCCN1C(=O)C(NC(=O)c2ccc(Cl)c(Cl)c2)c2ccccc21` (stereo unspecified) stands 125 to 126 °C; under `COc1ccccc1C1(O)OC(=O)C(c2ccc3c(c2)OCO3)=C1Cc1ccc2nsnc2c1` (stereo unspecified), 172 °C; under `CC(c1ccc2c(=O)c3ccccc3ccc2c1)C1N(c2ccccc2)CCN1c1ccccc1` (stereo unspecified), 81 to 89 °C.
Regarding `O=c1c2ccccc2[nH]c2c1cnn2-c1ccccn1`, the melting point lay within 240 to 242 °C.
For `CC(C)C[C@@H](C=NNC(N)=O)NC(=O)[C@H](Cc1c[nH]cn1)NC(=O)C(Cc1ccccc1)Cc1ccccc1`, the melting point fell in the range of 111 to 115 °C.
Under `O=[N+]([O-])c1ccc(-n2nnnc2-c2ccccc2-c2ccc(CBr)cc2)cc1` stands 192 to 195 °C; under `O=C1c2ccccc2C(Cc2ccnc(F)c2)(Cc2ccnc(F)c2)c2ccccc21`, 156 to 157 °C.
With `O=[N+]([O-])c1cc(C(F)(F)F)ccc1Sc1nc(-c2ccccc2)c(-c2ccccc2)[nH]1`, the melting point was 234 to 236 °C.
Under `CC#CCCn1ncc2c(N)c3c(nc21)CN(CCC)C3=O` stands 178 to 180 °C; under `NS(=O)(=O)c1ccc(C2CCCC2)cc1`, 158 °C.
`CCCc1c(-c2ccc(OC(F)F)c(OC3CC3)c2)[nH]c2cnn(COCC[Si](C)(C)C)c(=O)c12`: the melting point fell in the range of 208 to 210 °C.
Regarding `CC(C)=CCc1cc(C2CCc3ccc(O)cc3O2)ccc1O` (stereo unspecified), the melting point was 116 to 117 °C.
On to `CCCCCc1c(OCc2ccccc2)ccc(C(C)=O)c1O`, for which the melting point was in the range of 61 to 62 °C.
Under `CSc1ccc2c(c1)CN(C(C)C)S(=O)(=O)N2CCCl` stands 74 to 75 °C.
Turning to `CN(C)C(=O)Nc1ccc(Oc2ccc3c(c2)OC(C)(C)CC3)cc1`, the melting point lay within 137 to 138 °C.
In the case of `CCSc1nc2ccc(N)cc2s1`, the melting point lay in the range of 77 to 78 °C.
Under `N#Cc1cc(C(F)(F)F)cnc1O` stands 170 to 175 °C.
For the molecule `CS(=O)(=O)c1ccc(OCc2ccccc2)c(C=O)c1`, the melting point was 129 °C.
Under `CCC(=O)c1cnccn1` stands 46 to 47 °C; under `Cn1c2cccc(Br)c2c2nc3ccccc3nc21`, 208 to 209 °C.
For the molecule `CC(=O)NCCc1c[nH]c2ccc(OC(=O)Oc3ccc([N+](=O)[O-])cc3)cc12`, the melting point lay within 153 to 156 °C.
Under `O=C(Nc1ccc(CN2CCOCC2)cc1)C1=Cc2cc(-c3ccccc3)ccc2CC1` stands 186 to 187 °C; under `CCn1nc(OC2CSCCC2=O)c(-c2ccc(F)cc2)c1-c1ccc(S(C)(=O)=O)cc1` (stereo unspecified), 210 to 211 °C; under `CC(=O)NC(C)Cc1ccc(CCCC(=O)O)cc1` (stereo unspecified), 114 to 117 °C.
Under `O=Cc1ccc(OCc2ccccc2)c([N+](=O)[O-])c1` stands 100 to 102 °C.
Molecule `CCCN(CCC)Cc1cnc(-c2ncn3c2[C@@H]2CCN2C(=O)c2sccc2-3)o1` displayed a melting point of 133 to 135 °C.
Under `Sc1nnc(-c2cccnc2)o1` stands 237 °C; under `COc1cccc(Cc2nnc(NCCSCc3nccs3)[nH]c2=O)c1`, 128 to 129 °C.
In turn, `CC(C)(C)NC(=O)[C@@H]1C[C@H](Cl)CN1C(=O)OC(C)(C)C` gave a melting point of 149 to 150 °C.
Under `COC(=O)c1cccc(N)c1N` stands 62 to 63 °C.
Under `Cc1[nH]c(=O)n(C(C)C)c1-c1ccc(C2CCCCC2)cc1` stands 274 °C.
`N#CC(Cl)Cc1cccc([N+](=O)[O-])c1` (stereo unspecified) gave a melting point of 90 °C.
Under `FC(F)(F)c1n[nH]c(-c2nc3ccccc3[nH]2)n1` stands 247 °C.
`CC(=S)c1ccc(Cc2ccc(C(C)=S)cc2)cc1` yielded a melting point of 54 to 55 °C.
Under `O=C(O)c1cccn1-c1ccc(F)cc1` stands 195 to 196 °C.
The molecule `CCC1(CC)C(=O)N(C(C)(C)CC(C)(C)C)CC(C)(C)N1OC(C)(C)C#N` showed a melting point of 49 to 53 °C.
For the molecule `COc1ccc(CCCC(=O)Nc2ncc([N+](=O)[O-])s2)cc1`, the melting point fell in the range of 176 to 177 °C.
Under `Fc1cccc(-c2ncc(-c3cnc(-c4ccccc4)nc3)[nH]2)c1` stands 221 °C; under `CCCOc1ccc(S(=O)(=O)NC[C@@H](C(=O)NO)N2CCN(S(C)(=O)=O)CC2)cc1`, 137 °C.
Under `CC(C)Cc1cnc(O)c([N+](=O)[O-])c1` stands 161 to 163 °C.
Under `COc1cc(NC(=O)Nc2c(-c3ccccc3Cl)c3cc(C)ccc3oc2=O)cc(OC)c1OC(C)=O` stands 238 to 240 °C.
The molecule `COC(=O)c1cccc2c1Nc1cc(I)ccc1C2` had a melting point of 108 to 110 °C.
Consider `CCCc1c(OCCCCc2ccc3cc(O)c(O)cc3c2)ccc(C(=O)O)c1O`, for which the melting point was in the range of 173 to 175 °C.

As a reminder, the melting point is the temperature, or range, at which the solid turns liquid.

Source of the values: a melting point compilation (Tetko et al.; mined from patent text by program, amines drawn as free bases though some values may be those of a salt).
